The test system of one data set is 22Rv1. The data set is described as follows: In vitro proliferation, larger panel (Example 14). It is filed as cell-based. The following applies: Homo sapiens, Table III. From the text:
Results are depicted in Table III.

The subject of the next data set is MDA-MB-231. As to the kind of experiment: In vitro proliferation / cytotoxic assay on breast cancer cells (Examples 14, 25). The settings on record: Homo sapiens. It is filed as cell-based. The method, then:
Data shown in Table I were fitted through sigmoidal dose response curves and analyzed using Prizm statistical.
For the cytotoxic assay, cells were seeded in 96-well flat bottom culture plates in media containing charcoal stripped serum. After 24 hours, test compounds were added to the cells. DMSO was used as the vehicle negative control and RU486 as the positive control. After 72 hour incubation, cells were harvested and lysed to determine cell viability using the Cell Titer Glow assay.

In a further data set the target is T1, wild type AR (AR-LBD) (Rattus norvegicus, UniProt P15207).
T1 construct: purchased Life Technologies
T1 sequence (P15207 651-882 limits assumed): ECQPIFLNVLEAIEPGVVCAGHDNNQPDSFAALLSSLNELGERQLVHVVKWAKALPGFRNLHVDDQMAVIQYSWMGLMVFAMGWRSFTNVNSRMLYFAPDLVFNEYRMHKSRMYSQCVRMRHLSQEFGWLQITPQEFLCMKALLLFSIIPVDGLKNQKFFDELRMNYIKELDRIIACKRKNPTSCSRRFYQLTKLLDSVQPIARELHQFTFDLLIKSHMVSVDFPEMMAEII
The data set is described as follows: Polar Screen fluorescence polarization competition assay. It counts as binding.

The target in data set [1] is T2, glucocorticoid receptor (GR) (Homo sapiens, UniProt P04150).
T2 construct: endogenous in cells; host or cells: human kidney epithelial cells
T2 sequence (P04150 1-777): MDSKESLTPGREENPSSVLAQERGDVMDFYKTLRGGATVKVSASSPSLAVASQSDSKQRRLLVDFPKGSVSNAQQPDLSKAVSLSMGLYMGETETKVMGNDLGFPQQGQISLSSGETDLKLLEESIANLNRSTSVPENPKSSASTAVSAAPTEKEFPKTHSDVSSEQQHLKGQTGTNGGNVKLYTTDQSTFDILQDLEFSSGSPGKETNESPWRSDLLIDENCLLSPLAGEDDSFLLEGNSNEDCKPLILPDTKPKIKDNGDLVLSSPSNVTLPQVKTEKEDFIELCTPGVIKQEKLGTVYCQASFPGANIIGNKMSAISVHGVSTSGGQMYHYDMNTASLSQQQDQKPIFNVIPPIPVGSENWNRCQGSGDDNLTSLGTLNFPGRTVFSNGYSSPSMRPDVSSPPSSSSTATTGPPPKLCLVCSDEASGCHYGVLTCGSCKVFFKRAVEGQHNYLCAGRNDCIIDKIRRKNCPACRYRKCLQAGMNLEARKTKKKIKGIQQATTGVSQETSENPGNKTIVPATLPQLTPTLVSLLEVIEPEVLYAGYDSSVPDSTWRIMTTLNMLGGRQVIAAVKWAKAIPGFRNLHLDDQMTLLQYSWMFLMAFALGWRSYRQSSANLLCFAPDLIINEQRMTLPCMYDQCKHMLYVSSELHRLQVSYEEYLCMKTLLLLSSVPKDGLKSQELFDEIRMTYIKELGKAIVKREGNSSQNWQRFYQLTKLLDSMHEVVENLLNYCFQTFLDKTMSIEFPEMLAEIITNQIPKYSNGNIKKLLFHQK
The data set is described as follows: GR reporter antagonist assay (inhibition of Dexamethasone-induced luminescence). It counts as cell-based. The settings on record: inhibition of Dex-induced luminescence. The protocol: (§1) The androgen and glucocorticoid hormones elicit divergent and often opposing effects in cells, tissues, and animals. […] CB-03-06 GR antagonist and agonist activities were tested on an in vitro assay. Briefly, human kidney epithelial cells were transfected with DNA construct containing GR binding sites linked to luminescent based reporter molecule. After 24 hours, cells were treated under antagonist or agonist modes. After an additional 24 hours, luminescence which is proportional to GR agonist transcriptional activity was quantitated.
Antagonist Assay was based on inhibition of luminescence induced by Dexamethasone (Dex).
The antagonist activity of CB-03-06 was compared to a known GR antagonist, Mifepristone (also called RU486) as shown in FIG. 7.

Data set [2] has as its target T2, glucocorticoid receptor (GR). The data set is described as follows: GR reporter agonist assay (induction of luminescence). The settings on record: agonist mode. It counts as cell-based. The method, then: as §1
Agonist Assay—was based on induction of luminescence by CB-03-06
The agonist activity of CB-03-06 was compared to a RU486 which is known to not have agonist activity.

Data set [3] relates to MiaPaca2. The data set is described as follows: Annexin V / propidium iodide apoptosis flow cytometry. The following applies: 24 hours, control 12%. It is filed as cell-based. The protocol: CB-03-06 was evaluated to determine if the mechanism of cytotoxicity on cancer cell lines was mediated by apoptosis and cell cycle arrest. Cancer cell lines were seeded in 6-well flat bottom plates. After 24 hours, test compounds or DMSO vehicle (negative control) were added. After an additional 24 hours, cells were scraped and stained with fluorescein conjugated Annexin V and propidium iodide, and analyzed by flow cytometry.

For data set [4], the system named is MiaPaca2. As to the kind of experiment: Cell cycle arrest, propidium iodide staining. It counts as cell-based. The following applies: 24 hours, different concentrations. The method, then: Apoptosis can occur at the G1/S or G2/M transition of the cell cycle. Cells were treated with CB-03-10 for 24 hours then fixed with paraformaldehyde and stained with propidium iodide. […] The lack of G1 block indicates no effect on p53. The S & G2/M blocks may indicate activity on cell cycle check point molecules. For S phase, a possible target is the cyclin dependent kinase 2 (CDK2). Gemzar and cisplatin are example drugs that act in S phase. For G2, a possible target is CDK1.

The test system of data set [5] is caspases 8, 9, 3/7 in MiaPaca2 cells. The data set is described as follows: Caspase 8, 9 and 3/7 activity. It counts as cell-based.
Data set [6] has as its system caspases 8, 9, 3/7 in LNCaP cells. The data set is described as follows: Caspase 8, 9 and 3/7 activity. It counts as cell-based. The following applies: 24 hour incubation, Enzalutamide positive control. The method, then: After 24 hours, test compounds were added to cells. Gemcitabine (a known pancreatic cancer chemotherapeutic agent) and DMSO were used as positive and negative controls, respectively. There were three incubation time points: 8 hours, 24 hours, and 48 hours. After each time point, cells were lysed in multiplex buffer containing the caspase 3/7 substrate combined with either caspase 8 or caspase 9 reagents, which contain stable luciferase in proprietary buffers. The lysates were transferred to white opaque 96-well plates before measuring luminescence on a Tecan Safire instrument. Parallel plates treated identically were used to determine cell viability. All caspase activities were corrected for the number of viable cells.
The same assay was repeated using LNCaP prostate cancer cell lines. […] The results are shown in FIG. 12 after 24 hour incubation when the caspase activities peaked.

Data set [7] can be described thus: In vitro metabolism in plasma. It is filed as in vitro ADME. The settings on record: human plasma, 37 C, through 8 hours. The protocol:
To obtain some insight on the metabolism of CB-03-06 in human and rat plasma, a specific assay was designed. Briefly, the compound was incubated at different time points in human and rat plasma at 37 C. After incubation, the samples were tested for presence of the intact compound by liquid chromatography.

Like-named read-outs stand apart in the source and are kept apart here.

These results are taken from patent publication US10231980B2, “Cortexolone 17alpha-benzoate for use in the treatment of tumours” (COSMO TECHNOLOGIES LTD., priority 2014, dated 2019).

Description for wild type AR (AR-LBD): Briefly, the AR is added to a fluorescent androgen ligand (Fluormone™ AL Green) to form an AR-LBD complex. Competitors displace the fluorescent Fluormone™ AL Green ligand from the AR-LBD causing the fluorescent ligand to tumble rapidly during its fluorescence lifetime, resulting in a low polarization value. Non competitors will not displace the fluorescent ligand from the complex, so the polarization value remains high. The shift in polarization value in the presence of test compounds is used to determine relative affinity of test compounds for AR-LBD.

On to `C[C@]12CCC(=O)C=C1CC[C@@H]1[C@@H]2CC[C@@]2(C)[C@H]1CC[C@]2(OC(=O)c1ccccc1)C(=O)CO` [CB-03-06, cortexolone 17α-benzoate], for which the IC50 in the data set on 22Rv1 came to 25 µM; in the data set with MDA-MB-231 (MDA-MB-231, 72 h), 46 µM; in the data set on MDA-MB-231 (MDA-MB-231, read-out: in vitro proliferation IC50), 46 µM; on wild type AR (AR-LBD), 2.6 µM. In addition, the “GR antagonist potency, times less than RU486” value in data set [1] worked out at 100 times. In data set [2], the “GR agonist activity plateau” value is listed as 45 % of Dex maximum. In [2] (CB-03-06 compared with Dex), the “concentration activating the GR to the same extent” value is 14 nM. Further, the “cells in apoptosis (early and late)” value in the data set with MiaPaca2 [3] is given as 56 % cells. The cell cycle arrest result with MiaPaca2 [4] is on record as “induces an S phase block at lower concentrations then a G2/M block at higher concentration”. In addition, in data set [5] (20 or 50 μM, evident after 8 hours), the “caspase 8 and 9 activity, increase compared to the control” value is given as no more than 7 fold. Further, the “Caspase 3/7 induction” value in data set [5] (48 hour incubation) was “induced by CB-03-06 at high level”. Moreover, the “Initiator (8 and 9) and Effector (3/7) caspase activities” value in [6] was “induced Initiator (8 and 9,) and Effector (3/7) caspase activities better than Enzalutamide”. Also, the “intact compound, % of initial concentration” value in data set [7] is reported as “over 90%”.
